Experimental findings from patent US20070099877A1, “N-aryl-thienopyrimidin-4-amines and analogs as activators of caspases and inducers of apoptosis and the use thereof” (Cytovia, Inc., priority 2005, published 2007) are described below.

Common to all, as to format: cell-based
Experiment [1] relates to human breast cancer cell line MDAMB435. Briefly: Inhibition of cell proliferation (GI50) in MDAMB435 cells. The protocol:
(§1) Human breast cancer cell lines T-47D, MX-1 and MDAMB435, human colon cancer cell line HT29, and human lung cancer cell line H1299 were grown and harvested as in Example 75. An aliquot of […] of cells (4.4×10^4 cells/mL) was added to a well of a 96-well microtiter plate containing 5 μL of a 10% DMSO in RPMI-1640 media solution containing 10 nM to 100 μM of N-(2,5-dimethoxyphenyl)-2-methylthieno[3,2-d]pyrimidin-4-amine (1 nM to 10 μM final). An aliquot of 45 μL of cells was added to a well of a 96-well microtiter plate containing 5 μL of a 10% DMSO in RPMI-1640 media solution without compound as the control sample for maximal cell proliferation (Lmax). The samples were mixed by agitation and then incubated at 37° C. for 48 h in a 5% CO2-95% humidity incubator. After incubation, the samples were removed from the incubator and 25 μL of CellTiter-Glo™ reagent (Promega) was added. The samples were mixed by agitation and incubated at room temperature for 10-15 min. Plates were then read using a luminescent plate reader (Model SPECTRAfluor Plus, Tecan) to give Ltest values.
(§2) Baseline for GI50 (dose for 50% inhibition of cell proliferation) of initial cell numbers was determined by adding an aliquot of 45 μL of cells or 45 μL of media, respectively, to wells of a 96-well microtiter plate containing 5 μL of a 10% DMSO in RPMI-1640 media solution. The samples were mixed by agitation and then incubated at 37° C. for 0.5 h in a 5% CO2-95% humidity incubator. After incubation, the samples were removed from the incubator and 25 μL of CellTiter-Glo™ reagent (Promega) was added. The samples were mixed by agitation and incubated at 37° C. for 10-15 min at room temperature in a 5% CO2-95% humidity incubator. Fluorescence was read as above, (LStart) defining luminescence for initial cell number used as baseline in GI50 determinations.
(§3) GI50 (dose for 50% inhibition of cell proliferation) is the concentration where [(LTest−Lstart)/(LMax−Lstart)]=0.5.

Experiment [2] has as its system multi-drug resistant (MDR) murine leukemia cell line P388ADR. Briefly: Inhibition of cell proliferation (GI50) in P388/ADR cells. The settings on record: Mus musculus, Table IV, read-out: GI50 in Multi-Cancer Cells P388/ADR. The protocol:
as §1, §2, §3
(§4) Several compounds were tested in multi cancer cell lines, including human breast cancer cell lines T-47D, MX-1, SKBR3 and MDAMB435, human hepatocellular carcinoma cell line SNU398, human colon carcinoma cell line HCT116, human sarcoma cell line MES-SA and multi-drug resistant (MDR) human sarcoma cell line MES-SA/ADR, murine leukemia cell line P388 and multi-drug resistant (MDR) murine leukemia cell line P388ADR, and the data are summarized in Table IV.

The subject of experiment [3] is multi-drug resistant (MDR) human sarcoma cell line MES-SA/ADR. The experiment in a line: Inhibition of cell proliferation (GI50) in MES-SA/ADR cells. The settings on record: Table IV, read-out: GI50 in Multi-Cancer Cells MES-SA/ADR. The protocol: as §1, §2, §3, §4
Experiment [4] concerns human breast cancer cell line MX-1. The experiment in a line: Inhibition of cell proliferation (GI50) in MX-1 cells. The settings on record: MX1 cells. The protocol:
as §1, §2, §3

The test system of experiment [5] is human breast cancer cell line T-47D. Briefly: Caspase cascade activation (DEVD-R110 fluorogenic substrate) in T-47D cells. The settings on record: Homo sapiens, T47D. The method in brief:
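Cells were exposed to compound at 0.016 to 10 μM final for 24 h or 48 h at 37 °C. They were then lysed with 14 μM N-(Ac-DEVD)-N′-ethoxycarbonyl-R110 in lysolecithin/DTT/PIPES buffer pH 7.2 for 3 h at room temperature (ex 485/em 530 nm). EC50 came from a sigmoidal fit of net RFU relative to untreated control.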

In experiment [6] the test system is human lung cancer cell line H1299. The experiment in a line: Inhibition of cell proliferation (GI50) in H1299 cells. The conditions noted are these: NCI-H1299, Table III, 48 h. On the procedure:
as §1, §2, §3

Experiment [7] concerns human Burkitt's lymphoma cell line Namalwa. The experiment in a line: Caspase cascade activation in Namalwa cells. The conditions noted are these: Burkitts lymphoma cell, 48 h, read-out: Caspase Activation Potency EC50 Namalwa.
Experiment [8] relates to breast cancer cell line SKBR3. Briefly: Caspase cascade activation in SKBR3 cells. The conditions noted are these: Homo sapiens, SK-BR-3, 48 h, read-out: Caspase Activation Potency EC50 SKBR3.
The test system of experiment [9] is human B cell lymphoblastoid cell line Ramos. The experiment in a line: Caspase cascade activation in Ramos cells. The settings on record: 48 h, read-out: Caspase Activation Potency EC50 Ramos.
The mark [10] stands for this setting: MDA-MB-435, Table IV, read-out: GI50 in Multi-Cancer Cells MDAMB435.
Setting [11] is: Table IV, read-out: GI50 in Multi-Cancer Cells MX1.
The mark [12] stands for this setting: 24 h, T47D cells, 24 h, read-out: Caspase activation Potency EC50 T47D (24 h).
[13] abbreviates: 48 h, T-47D cells, 48 h, read-out: Caspase activation Potency EC50 T-47D (48 h).

Structures are written as SMILES. Counter-ions that a name gives are not always drawn. Like-named read-outs stand apart in the source and are kept apart here.

As for `COc1ccc(OC)c(Nc2ncnc3ccsc23)c1` [Example 2, N-(2,5-Dimethoxyphenyl)thieno[3,2-d]pyrimidin-4-amine], the GI50 in [1] (MDA-MB-435, Table III, 48 h, read-out: GI50 in Cancer Cells MDAMB435) came out at 756 nM; in experiment [1] (setting [10]), 1070 nM; in [2], 2600 nM; in experiment [3], 7260 nM; in experiment [4] (Table III, 48 h, read-out: GI50 in Cancer Cells MX1), 300 nM; in experiment [4] (setting [11]), 800 nM. This compound returned a GI50 in experiment [6] of 1040 nM. Moreover, the EC50 in experiment [5] (setting [12]) worked out at 61 nM; in experiment [5] (setting [13]), 105 nM.
Regarding `COc1cc(Nc2ncnc3ccsc23)cc(OC)c1` [Example 12, N-(3,5-Dimethoxyphenyl)thieno[3,2-d]pyrimidin-4-amine hydrochloride], the GI50 in experiment [1] (setting [10]) was 105 nM; in [2], 296 nM; in [3], 1200 nM; in experiment [4] (setting [11]) it was 17 nM. The concentration for a half-maximal effect (EC50) in experiment [7] was found to be 356 nM; in experiment [8], 77 nM; in experiment [9], 582 nM; in [5] (setting [12]) it was 38 nM; in experiment [5] (setting [13]), 62 nM.

The term EC50 denotes the midpoint of the concentration-response curve.
